Results taken from PubChem BioAssay AID2060626 (Molecular Pharmacology Branch, DTP, NCI, 2025).

What follows are compounds tested on 168753-222-R-J1-PDC complex spheroid viability (assay: Anticancer human tumor 168753-222-R-J1-PDC patient-derived bladder carcinoma cell line growth inhibition [CLK]). Conditions: second compound 0.316 µM; first compound 1 µM; hits give low values.
Summary of the method: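 Multi-cell-type spheroids combined patient-derived tumor cells with HUVEC endothelial cells and human mesenchymal stem cells. Paired agents were dosed in half-log steps down from about clinical Cmax, or from 10 microM where Cmax was unknown.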
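Note: luminescence signal used as surrogate for viable cell amount; viability measured after seven days of drug exposure; 100% = DMSO vehicle control wells.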

Compound | viability, T/C [%]
COc1ccc([C@@H](O)c2cc(-c3ncnc4cc(N5CCOCC5)ccc34)c(F)cc2Cl)nn1 + CN1CCN(c2cc(C(=O)Nc3cc4cc(-c5cnn(C)c5)ccc4cn3)ccn2)CC1 | 7.9
COc1cccc2c1C(=O)c1c(O)c3c(c(O)c1C2=O)CC(O)(C(=O)CO)CC3OC1CC(N)C(O)C(C)O1 (stereo unspecified) + CN1CCN(c2cc(C(=O)Nc3cc4cc(-c5cnn(C)c5)ccc4cn3)ccn2)CC1 | 6.39
C=CC(=O)N1CCN(c2nc(=O)n(-c3c(C)ccnc3C(C)C)c3nc(-c4c(O)cccc4F)c(F)cc23)C(C)C1 (stereo unspecified) + CNC(=O)c1ccc(Nc2nc(OC3CCCC3)c3c(-c4ccc5nc(C)oc5c4)c[nH]c3n2)c(OC)c1 | 78.3
CCCS(=O)(=O)Nc1ccc(F)c(C(=O)c2c[nH]c3ncc(-c4ccc(Cl)cc4)cc23)c1F + CNC(=O)c1ccc(Nc2nc(OC3CCCC3)c3c(-c4ccc5nc(C)oc5c4)c[nH]c3n2)c(OC)c1 | 104
COC1C=CCC(C)C(C)S(=O)(=O)NC(=O)c2ccc3c(c2)N(CC2CCC21)CC1(CCCc2cc(Cl)ccc21)CO3 (stereo unspecified) + CNC(=O)c1ccc(Nc2nc(OC3CCCC3)c3c(-c4ccc5nc(C)oc5c4)c[nH]c3n2)c(OC)c1 | 29.7

Same assay, conditions: second compound 0.316 µM; first compound 3.16 µM; hits give low values

Compound | viability, T/C [%]
COc1ccc([C@@H](O)c2cc(-c3ncnc4cc(N5CCOCC5)ccc34)c(F)cc2Cl)nn1 + CN1CCN(c2cc(C(=O)Nc3cc4cc(-c5cnn(C)c5)ccc4cn3)ccn2)CC1 | 7.78
COc1cccc2c1C(=O)c1c(O)c3c(c(O)c1C2=O)CC(O)(C(=O)CO)CC3OC1CC(N)C(O)C(C)O1 (stereo unspecified) + CN1CCN(c2cc(C(=O)Nc3cc4cc(-c5cnn(C)c5)ccc4cn3)ccn2)CC1 | 0.05
C=CC(=O)N1CCN(c2nc(=O)n(-c3c(C)ccnc3C(C)C)c3nc(-c4c(O)cccc4F)c(F)cc23)C(C)C1 (stereo unspecified) + CNC(=O)c1ccc(Nc2nc(OC3CCCC3)c3c(-c4ccc5nc(C)oc5c4)c[nH]c3n2)c(OC)c1 | 94.1
CCCS(=O)(=O)Nc1ccc(F)c(C(=O)c2c[nH]c3ncc(-c4ccc(Cl)cc4)cc23)c1F + CNC(=O)c1ccc(Nc2nc(OC3CCCC3)c3c(-c4ccc5nc(C)oc5c4)c[nH]c3n2)c(OC)c1 | 101
COC1C=CCC(C)C(C)S(=O)(=O)NC(=O)c2ccc3c(c2)N(CC2CCC21)CC1(CCCc2cc(Cl)ccc21)CO3 (stereo unspecified) + CNC(=O)c1ccc(Nc2nc(OC3CCCC3)c3c(-c4ccc5nc(C)oc5c4)c[nH]c3n2)c(OC)c1 | 30

Same assay, conditions: second compound 0.316 µM; first compound 10 µM; hits give low values

Compound | viability, T/C [%]
COc1ccc([C@@H](O)c2cc(-c3ncnc4cc(N5CCOCC5)ccc34)c(F)cc2Cl)nn1 + CN1CCN(c2cc(C(=O)Nc3cc4cc(-c5cnn(C)c5)ccc4cn3)ccn2)CC1 | 3.67
COc1cccc2c1C(=O)c1c(O)c3c(c(O)c1C2=O)CC(O)(C(=O)CO)CC3OC1CC(N)C(O)C(C)O1 (stereo unspecified) + CN1CCN(c2cc(C(=O)Nc3cc4cc(-c5cnn(C)c5)ccc4cn3)ccn2)CC1 | 0.05
C=CC(=O)N1CCN(c2nc(=O)n(-c3c(C)ccnc3C(C)C)c3nc(-c4c(O)cccc4F)c(F)cc23)C(C)C1 (stereo unspecified) + CNC(=O)c1ccc(Nc2nc(OC3CCCC3)c3c(-c4ccc5nc(C)oc5c4)c[nH]c3n2)c(OC)c1 | 82.2
CCCS(=O)(=O)Nc1ccc(F)c(C(=O)c2c[nH]c3ncc(-c4ccc(Cl)cc4)cc23)c1F + CNC(=O)c1ccc(Nc2nc(OC3CCCC3)c3c(-c4ccc5nc(C)oc5c4)c[nH]c3n2)c(OC)c1 | 49.3
COC1C=CCC(C)C(C)S(=O)(=O)NC(=O)c2ccc3c(c2)N(CC2CCC21)CC1(CCCc2cc(Cl)ccc21)CO3 (stereo unspecified) + CNC(=O)c1ccc(Nc2nc(OC3CCCC3)c3c(-c4ccc5nc(C)oc5c4)c[nH]c3n2)c(OC)c1 | 11.9

Same assay, conditions: second compound 1 µM; first compound 0.0316 µM; hits give low values

Compound | viability, T/C [%]
COc1ccc([C@@H](O)c2cc(-c3ncnc4cc(N5CCOCC5)ccc34)c(F)cc2Cl)nn1 + CN1CCN(c2cc(C(=O)Nc3cc4cc(-c5cnn(C)c5)ccc4cn3)ccn2)CC1 | 0.16
COc1cccc2c1C(=O)c1c(O)c3c(c(O)c1C2=O)CC(O)(C(=O)CO)CC3OC1CC(N)C(O)C(C)O1 (stereo unspecified) + CN1CCN(c2cc(C(=O)Nc3cc4cc(-c5cnn(C)c5)ccc4cn3)ccn2)CC1 | 0.13
C=CC(=O)N1CCN(c2nc(=O)n(-c3c(C)ccnc3C(C)C)c3nc(-c4c(O)cccc4F)c(F)cc23)C(C)C1 (stereo unspecified) + CNC(=O)c1ccc(Nc2nc(OC3CCCC3)c3c(-c4ccc5nc(C)oc5c4)c[nH]c3n2)c(OC)c1 | 51.7
CCCS(=O)(=O)Nc1ccc(F)c(C(=O)c2c[nH]c3ncc(-c4ccc(Cl)cc4)cc23)c1F + CNC(=O)c1ccc(Nc2nc(OC3CCCC3)c3c(-c4ccc5nc(C)oc5c4)c[nH]c3n2)c(OC)c1 | 53.7
COC1C=CCC(C)C(C)S(=O)(=O)NC(=O)c2ccc3c(c2)N(CC2CCC21)CC1(CCCc2cc(Cl)ccc21)CO3 (stereo unspecified) + CNC(=O)c1ccc(Nc2nc(OC3CCCC3)c3c(-c4ccc5nc(C)oc5c4)c[nH]c3n2)c(OC)c1 | 33

Same assay, conditions: second compound 1 µM; first compound 0.1 µM; hits give low values

Compound | viability, T/C [%]
COc1ccc([C@@H](O)c2cc(-c3ncnc4cc(N5CCOCC5)ccc34)c(F)cc2Cl)nn1 + CN1CCN(c2cc(C(=O)Nc3cc4cc(-c5cnn(C)c5)ccc4cn3)ccn2)CC1 | 0.12
COc1cccc2c1C(=O)c1c(O)c3c(c(O)c1C2=O)CC(O)(C(=O)CO)CC3OC1CC(N)C(O)C(C)O1 (stereo unspecified) + CN1CCN(c2cc(C(=O)Nc3cc4cc(-c5cnn(C)c5)ccc4cn3)ccn2)CC1 | 0.11
C=CC(=O)N1CCN(c2nc(=O)n(-c3c(C)ccnc3C(C)C)c3nc(-c4c(O)cccc4F)c(F)cc23)C(C)C1 (stereo unspecified) + CNC(=O)c1ccc(Nc2nc(OC3CCCC3)c3c(-c4ccc5nc(C)oc5c4)c[nH]c3n2)c(OC)c1 | 35.4
CCCS(=O)(=O)Nc1ccc(F)c(C(=O)c2c[nH]c3ncc(-c4ccc(Cl)cc4)cc23)c1F + CNC(=O)c1ccc(Nc2nc(OC3CCCC3)c3c(-c4ccc5nc(C)oc5c4)c[nH]c3n2)c(OC)c1 | 50.7
COC1C=CCC(C)C(C)S(=O)(=O)NC(=O)c2ccc3c(c2)N(CC2CCC21)CC1(CCCc2cc(Cl)ccc21)CO3 (stereo unspecified) + CNC(=O)c1ccc(Nc2nc(OC3CCCC3)c3c(-c4ccc5nc(C)oc5c4)c[nH]c3n2)c(OC)c1 | 22.6

Same assay, conditions: second compound 1 µM; first compound 0.316 µM; hits give low values

Compound | viability, T/C [%]
COc1ccc([C@@H](O)c2cc(-c3ncnc4cc(N5CCOCC5)ccc34)c(F)cc2Cl)nn1 + CN1CCN(c2cc(C(=O)Nc3cc4cc(-c5cnn(C)c5)ccc4cn3)ccn2)CC1 | 0.13
